Marks after values point to notes of the source that are not given here. Square brackets hold non-standard residues; d marks the D form. Ends that are not written are not given here. Tyr(3,5-Br2) = N[C@@H](Cc1cc(Br)c(O)c(Br)c1)C(=O)O; Nle = CCCC[C@H](N)C(=O)O
Key:
[1] = test system: human gastric carcinoma BGC-823 xenograft; assay: nude mice-transplanted human gastric carcinoma BGC-823 xenograft; assay type: in vivo, BALB/c (nu/nu) nude mice; conditions: 30 days
Procedure: Hunan gastric carcinoma cell line BGC-823 at log phase were adjusted to the concentration of 2×10^7/ml and then inoculated subcutaneously to the back of nude mice (0.1 ml per mouse). The inoculated animals were randomized into groups of CMS024-16 (160 μg/kg/day, 320 μg/kg/day, and 640 μg/kg/day, all at 0.2 ml/day), positive control (5-Fu, 20 mg/kg/day at 0.2 ml/day), and negative control (normal saline, 0.2 ml/day). Administration of test substances by intraperitoneal injection was started on the next day after tumor implantation once per day for 30 continuous days. On the next day after the last injection, the tumor masses were collected and their weights determined Inhibition rate=(Mean weight of negative control−Mean weight of test group)/(Mean weight of negative control)×100%

[2] = test system: hepatocarcinoma H22; assay: survival of mice transplanted with H22 hepatocarcinoma; assay type: in vivo, BALB/c mice; conditions: for survival of mice transplanted with H22 tumor cells: 80 μg/kg/day, vs saline control P<0.05
Procedure: Healthy BALB/c mice were randomized into groups of CMS-024.04, CMS-025.05, CMS-024.14, and CMS-024.16 (80 μg/kg/day), 5-Fu (20 mg/kg/day, once for every two days), saline (0.2 ml/day), and normal group (without tumor cell inoculation).
Mice inoculated with hepatocarcinomas for 6-8 days were sacrificed. The ascites was collected and the cell concentration adjusted to 5×10^7/ml with D-Hanks' solution. 0.2 ml of this was inoculated intraperitoneally to each BALB/c mouse except for the normal controls.
Administration of test substance was started on the next day after the tumor cell inoculation. The peptides and saline were applied daily and 5-FU once every two days for 60 continuous days or until the death of the mice.
The time of death was recorded and survival time prolongation calculated. Survival time prolongation was calculated as below: Survival prolongation (%)=(Average survival days of test group)−(Average survival days of saline control group)/(Average survival days of saline group)×100%.

[3] = test system: skin allograft; assay: survival of skin allograft in mice (CMS-014); assay type: in vivo, Balb/c mice (C57BL/6 donors)
Procedure: Half of the mice were male and half were female.
The test substances were dissolved in 0.5 ml saline and intraperitoneally injected for 5 days before the skin transplantation, followed by daily injection until the end point of rejection of the skin graft.
A patch of hair at the back of Balb/c mice was removed by 8% Na2S solution. On the next day, a wound bed of approximately 1 cm^2 was produced by removing the skin surgically, and then a piece of full-thickness tail skin of 1 cm^2 from sex-matched donor C57BL/6J mice was placed onto the wound bed. The surgical site was covered and protected with a layer of paraffin gauze, and a covering plaster was applied. The plaster was removed 6 days after transplantation^[1], and the recipient mice were monitored daily for the viability of the allograft. The end point of rejection was taken as only less than 10% of the allograft remained viable^[2].

[4] = test system: Balb/c mice swimming time model; assay: exhaustive swimming time of mice (Example 11); assay type: in vivo
Procedure: Balb/c male mice were randomized into groups of CMS-001.30 (20 μg/kg/day), CMS-001.31 (20 μg/kg/day), EPO (1000 u/kg/day, three times per week), and saline control. The test substance was dissolved in 0.5 ml saline and applied intraperitoneally once per day for 30 continuous days (EPO was replaced with saline if EPO was not applied). On the tenth day, the mice were trained to swim for 10 min at water temperature of 25±1° C. 30 min after the last test substance administration, the mice were placed to swim in the swimming tank (50 cm×50 cm×40 cm). The depth of water was 30 cm and water temperature 25±1° C. The limbs of the mice were kept moving in the whole process. The swimming (min) time of the mice until death was recorded. Exhaustive swimming time extension rate (ESTR) (%)=(Mean exhaustive swimming time of test group−Mean exhaustive swimming time of saline control)/(Mean exhaustive swimming time of saline control)×100%. 1.4 Statisitics

[5] = test system: BALB/c mice; assay: serum SOD, MDA, AST, ALT levels after exhaustive exercise; assay type: in vivo
Procedure: (§1) The mice were randomized into groups of CMS-001 (20 μg/kg/day, 5 μg/kg/day), CMS-008 (500 μg/kg/day, 125 μg/kg/day), and saline control. The test substance was administered by intraperitoneal injection once per day for 30 continuous days. A week after the start the of the test substance administration, the mice were trained to swim for 10 min, at water temperature of 25±1° C. 30 min after the last injection, the mice were placed to swim in the swimming tank without addition of weight at water depth of 30 cm and temperature of 25±1° C.^[4]. By the first time the mice sunk, the mice were rescued and blood was collected from the orbital sinus immediately. The serum was isolated and the MDA, SOD, AST, and ALT levels determined.

[6] = test system: BALB/c mice; assay: blood lactic acid level of mice after exercise; assay type: in vivo; conditions: for Lactic acid elimination after rest: 20 min rest
Procedure: (§2) The mice were randomized into groups of CMS-001 (20 μg/kg/day, 5 μg/kg/day), CMS-008 (500 μg/kg/day, 125 μg/kg/day), and saline control. The test substance was administered by intraperitoneal injection once per day for 30 continuous days. A week after the start the of the test substance administration, the mice were trained to swim for 10 min, at water temperature of 25±1° C.
30 min after the last injection, 20 μl of blood was first collected from the orbital sinus. The mice were then weighed, and lead pieces corresponding to 4% of the body weight were wrapped to the tails of the mice at about 1 cm away from the body. The mice were placed to swim in the swimming tank for 10 min, at water depth of 30 cm and temperature of 30±1° C. The limbs of the mice were kept moving in the whole process. Immediately after the exercise and after resting for 20 min, 20 μl of blood was collected from the orbital sinus again. The blood was added into 40 μl hypotonic buffer and sonicated. Lactic acid level in the blood was determined by the lactic acid analyzer.
The amount of lactic acid increase after exercise is calculated based on the amount of lactic acid level immediately after exercise minus the lactic acid level before exercise.
The amount of lactic acid elimination after rest was calculated based on the amount of lactic acid level immediately after exercise minus the lactic acid level after rest.

[7] = test system: BALB/c mice; assay: liver glycogen level of mice; assay type: in vivo
Procedure: The mice were randomized into groups of CMS-001 (20 μg/kg/day, 5 μg/kg/day), CMS-008 (500 μg/kg/day, 125 μg/kg/day), and saline control. The test substance was administered by intraperitoneal injection once per day for 30 continuous days. A week after the start the of the test substance administration, the mice were trained to swim for 10 min, at water temperature of 25±1° C. 30 min after the last injection, the mice were killed by cervical dislocation and the liver was dissected, washed with saline, and blotted dry with filter paper. About 100 mg liver was accurately weighed and the liver glycogen level was determined by the Anthracene Ketone reagent kit. Glycogen weight (mg) in every 100 g of liver=DU/DS×0.5×homogenization liquid vol./liver weight(g)×100×0.9.

[8] = test system: BALB/c mice; assay: serum urea nitrogen level after exercise; assay type: in vivo
Procedure: as §1, with “weight for 90 min,” for “weight”, “cm” for “cm and”, “30±1° C. The” for “25±1° C.^[4]. By the first time the mice sunk, the”, “then allowed to rest for 30 min,” for “rescued”, “sinus.” for “sinus immediately.”, “BUN was determined by a fully automated Biochemistry Analyser.” for “MDA, SOD, AST, and ALT levels determined.”

[9] = test system: BALB/c mice exhaustive swimming model; assay: exhaustive swimming time of mice; assay type: in vivo; conditions: 30 days
Procedure: as §2
30 min after the last injection, the mice were weighed, and lead pieces corresponding to 5% of the body weight were wrapped to the tails of the mice at about 1 cm away from the body. The mice were placed in the swimming tank, at water depth of 30 cm and temperature of 25±1° C. The limbs of the mice were kept moving in the whole process. The time of swimming until the death was recorded.

[10] = Table 6.1 experiment, 20 mg/kg once every two days
[11] = Table 6.2 experiment, 20 mg/kg once every two days
[12] = Table 6.2 experiment, 80 μg/kg daily i.p.
[13] = 1000 u/kg/day, 3 times per week
[14] = Table 6.1 experiment, 80 μg/kg daily i.p.

## O=c1[nH]cc(F)c(=O)[nH]1 [5-Fu, 5-fluorouracil, reference compound]
[1]; 20 mg/Kg/day i.p.
  Inhibition rate: 40.8* %
  Tumor weight: 1.70 ± 0.70 g
[2]; [10]
  Survival Prolongation: 84.5* %
  Survival time (first column): 30.0 ± 2.0 days
  Survival time (second column): 32.5 ± 6.3 days
[2]; [11]
  Survival Prolongation: 33.3%
  Survival time (first column): 18.0 ± 0.4 days
  Survival time (second column): 24.5 ± 11.1 days

## (3,5-dibromo-Tyr)-Ser-Leu ([Tyr(3,5-Br2)]-Ser-Leu) [CMS-024.14]
[2]
  survival of mice transplanted with H22 tumor cells: prolong the survival
[2]; [12]
  Survival Prolongation: 50.3%
  Survival time (first column): 16.0 ± 0.0 days
  Survival time (second column): 27.6 ± 8.5 days

## AAHHPDDFNPSV [CMS-014]
[3]; 125 μg/kg/day i.p.
  MST (mean survival time of skin allograft): 10.0 ± 0.5 days
[3]; 250 μg/kg/day i.p.
  MST (mean survival time of skin allograft): 9.8 ± 0.5 days
[3]; 500 μg/kg/day i.p.
  MST (mean survival time of skin allograft): 9.8 ± 0.4 days

## Erythropoietin [EPO, reference compound]
[4]; [13]
  ESTR (exhaustive swimming time extension rate): 31.3* %
  Swimming time: 126.1 ± 20.4 min

## KAVGHLDDLPGAL [CMS-008]
[5]; 500 μg/kg/day
  ALT: 32.9 ± 5.2 U/L
  AST: 116.6 ± 18.8 U/L
  MDA: 4.1 ± 0.4 nmol/L
  SOD: 415.7 ± 31.5 U/ml
[6]; 125 μg/kg/day
  Lactic acid increase after exercise: 2.70 ± 0.15 mmol/L
  Lactic acid elimination after rest: 3.62 ± 0.57 mmol/L
[6]; 500 μg/kg/day
  Lactic acid increase after exercise: 2.23 ± 0.30 mmol/L
  Lactic acid elimination after rest: 3.71 ± 0.22 mmol/L
[7]; 125 μg/kg/day
  liver glycogen: 1275 ± 726 mg/100 g liver tissue
[7]; 500 μg/kg/day
  liver glycogen: 1408 ± 457 mg/100 g liver tissue
[8]; 125 μg/kg/day
  Urea Nitrogen: 7.2 ± 2.3 mmol/L
[8]; 500 μg/kg/day
  Urea Nitrogen: 7.1 ± 2.0 mmol/L
[9]; 125 μg/kg/day i.p.
  Swimming time: 106.5 ± 19.4 min
  Swimming-time extension: 57.9* %
[9]; 500 μg/kg/day i.p.
  Swimming time: 116.5 ± 17.7 min
  Swimming-time extension: 72.7* %

## Leu-Tyr-Ser (LYS; Synthetically prepared peptide sequence) [CMS-024.16]
[1]; 160 μg/Kg/day i.p.
  Inhibition rate: 54.0* %
  Tumor weight: 1.32 ± 0.68 g
[1]; 320 μg/Kg/day i.p.
  Inhibition rate: 44.7* %
  Tumor weight: 1.59 ± 1.017 g
[1]; 640 μg/Kg/day i.p.
  Inhibition rate: 54.4* %
  Tumor weight: 1.31 ± 0.77 g
[2]
  survival of mice transplanted with H22 tumor cells: prolong the survival
[2]; [12]
  Survival Prolongation: 57.8%
  Survival time (first column): 18.0 ± 1.0 days
  Survival time (second column): 29.0 ± 7.9 days

## PTTKTY [CMS-001.30]
[4]; 20 μg/kg/day i.p., 30 days
  ESTR (exhaustive swimming time extension rate): 88.3* %

## PTTKTYFP [CMS-001.31]
[4]; 20 μg/kg/day i.p., 30 days
  ESTR (exhaustive swimming time extension rate): 76.0* %

## PTTKTYFPHF [CMS-001]
[5]; 20 μg/kg/day
  ALT: 32.7 ± 3.0 U/L
  AST: 117.0 ± 19.2 U/L
  MDA: 4.4 ± 0.2 nmol/L
  SOD: 400.6 ± 45.6 U/ml
[6]; 5 μg/kg/day
  Lactic acid increase after exercise: 2.60 ± 0.33 mmol/L
  Lactic acid elimination after rest: 2.96 ± 0.33 mmol/L
[6]; 20 μg/kg/day
  Lactic acid increase after exercise: 2.56 ± 0.41 mmol/L
  Lactic acid elimination after rest: 3.14 ± 0.64 mmol/L
[7]; 5 μg/kg/day
  liver glycogen: 439 ± 271 mg/100 g liver tissue
[7]; 20 μg/kg/day
  liver glycogen: 1567 ± 604 mg/100 g liver tissue
[8]; 5 μg/kg/day
  Urea Nitrogen: 6.9 ± 1.6 mmol/L
[8]; 20 μg/kg/day
  Urea Nitrogen: 7.3 ± 2.1 mmol/L
[9]; 5 μg/kg/day i.p.
  Swimming time: 105.7 ± 19.8 min
  Swimming-time extension: 56.7* %
[9]; 20 μg/kg/day i.p.
  Swimming time: 99.8 ± 30.6 min
  Swimming-time extension: 48.0* %

## Tyr-Ser-Nle (Tyr-Ser-[Nle]) [CMS-024.04, Nle = norleucine (2-aminohexanoic acid)]
[2]
  survival of mice transplanted with H22 tumor cells: prolong the survival
[2]; [14]
  Survival Prolongation: 15.8* %
  Survival time (first column): 19.0 ± 0.9 days
  Survival time (second column): 20.2 ± 4.4 days

## Tyr-Thr-Val (YTV; Synthetically prepared peptide sequence) [CMS-024.05]
[2]
  survival of mice transplanted with H22 tumor cells: prolong the survival
[2]; [14]
  Survival Prolongation: 10.4* %
  Survival time (first column): 19.0 ± 1.0 days
  Survival time (second column): 19.3 ± 2.4 days

Reference: patent US8658592B2, “Biologically active peptides and their new uses” (priority 2005, dated 2014)
